Data reported in publication PMC3125149, “SCYX-7158, an Orally-Active Benzoxaborole for the Treatment of Stage 2 Human African Trypanosomiasis” (PLoS Neglected Tropical Diseases, 2011).
Read-outs that look alike come from different tables or passages of the source.

Key:
[1] = Pharmacokinetics in cynomolgus monkeys; type: in vivo, cynomolgus monkey
Procedure: (§1) The blood distribution, CNS disposition and pharmacokinetics of SCYX-7158 were evaluated in infected or non-infected rodents following intravenous or oral administration of compounds. Pharmacokinetics and bioavailability of SCYX-7158 were also evaluated in non-infected beagle dogs and cynomolgus monkeys. In-life phases of non-infected rodent studies were performed at Vivisource (Waltham, MA); studies in non-naïve cynomolgus monkeys were performed by SNBL USA (Everett, WA). Male CD-1 mice (∼25 g), male Sprague-Dawley rats (∼225 g), or male cynomolgus monkeys (∼3–5 kg) were administered test article by either bolus intravenous injection (IV) or oral gavage. Animals in the IV groups received a single 2 mg/kg IV dose. Animals received oral doses of test articles as either single or twice daily doses ranging from 8 mg/kg to 50 mg/kg. All doses were administered as clear colorless solutions in either 50% (v/v) PEG 400: 20% (v/v) ethanol: 30% (v/v) carboxymethylcellulose (0.5% w/v in sterile water for injection) or 2% (v/v) ethanol: 5% (w/v) dextrose in sterile water for injection. […] For pharmacokinetic analysis, blood samples were collected from mice via cardiac puncture under terminal anaesthesia. Serial blood samples were collected from rats via a vascular access port located in the lateral saphenous vein. Mice and rats were euthanized in a CO2 chamber before collection of terminal blood samples or brain tissue. Blood samples were collected into polypropylene tubes containing K2EDTA anticoagulant and stored on ice until centrifuged for the preparation of plasma. Plasma was stored at −70°C. Whole brains were collected following decapitation, blotted dry, placed into polypropylene containers and then immediately frozen at approximately −70°C. CSF was collected from rats via cisterna magna puncture, placed in sterile polypropylene tubes, and stored at approximately −70°C. […] Treated samples were gently mixed at room temperature for 10 min, and then centrifuged at approximately 3000×g for 15 min at 15°C. The supernatants were transferred to 96-well plates or HPLC vials for analysis by LC-MS/MS. Pharmacokinetic parameters were calculated from composite mean plasma or tissue data using non-compartmental (oral and intravenous routes) and bi-exponential (intravenous route) analyses in Microsoft Excel.

[2] = Pharmacokinetics in uninfected rats; type: in vivo, rat
Procedure: as §1

[3] = Pharmacokinetics in uninfected mice; type: in vivo, mouse
Procedure: as §1

GVR35 stage 2 HAT model = conditions: ref R. Brun, personal communication, cited from earlier work
T. b. brucei TREU 667 = conditions: cited from earlier work
T. b. brucei 427 = experiment: In vitro compound sensitivity assay (resazurin viability); type: cell-based; conditions: T. b. brucei S427; at 10 µM
Source text: The bloodstream-form T. b. brucei 427 strain was obtained from Dr. K. Stuart (Seattle Biomedical Research Institute, Seattle, WA) and was used for routine assessment of compound sensitivity in vitro. Additional strains used in vitro include T. b. rhodesiense STIB900, isolated in 1992 from a patient in Tanzania, and T. b. gambiense 108R, isolated from a patient in Democratic Republic of Congo in 2005. T. b. brucei EATRO 110 was a generous gift from the late William Trager of the Rockefeller University. T. b. brucei TREU 667 strains were kindly provided by F. W. Jennings at the University of Glasgow. Both T. b. brucei EATRO 110 and TREU 667 were cultured according to previously described conditions and used for in vivo studies.[18], [19]
T. b. brucei was cultured in complete HMI-9 medium,[20] which contains 10% fetal bovine serum (FBS) (Invitrogen, Carlsbad, CA), 10% Serum Plus medium (SAFC Biosciences, Lenexa, KS), and 100 units/mL penicillin and 0.1 mg/mL streptomycin. The trypanosomes were propagated in T-25 vented cap flasks (Corning Inc., Lowell, MA) at 37°C and 5% CO2 with humidity. To ensure log growth phase, trypanosomes were sub-cultured at appropriate dilutions (typically 1∶100) every 2–3 days in fresh HMI-9 medium. T. b. rhodesiense parasites were grown in MEM medium with Earle's salts supplemented with 15% horse serum. For T. b. gambiense, the MEM medium was supplemented with 5% heat-inactivated fetal calf serum (FCS) and 15% human serum.[21] L929 mouse fibroblast cells (ATCC CCL1, American Type Culture Collection, Rockville, MD) were used to determine parasite versus mammalian cell selectivity. Cells were cultured in Dulbecco's Modified Eagle Medium (DMEM), supplemented with 10% FBS, L-glutamine and 100 units/mL penicillin and 0.1 mg/mL streptomycin. MDCKII-hMDR1 cells were generously provided by P. Borst at the Netherlands Kancer Institute. Cells were cultured in DMEM with Glutamax, 10% (v/v) FBS, and 100 units/mL penicillin and 0.1 mg/mL streptomycin. Cell monolayers were fed with cell culture media 24 h after seeding and used for permeability studies 3 days later.
(§2) Compounds to be tested were serially diluted in DMSO and added to 96-well plates to give final concentrations ranging from 5 to 0.01 µg/mL. T. b. brucei parasites in the log phase of growth were diluted in HMI-9 media and added to each well for a final concentration of 1×10^4 parasites per well. For the sensitivity assays using T. b. rhodesiense and T. b. gambiense, pararasites were cultured in MEM supplemented with Baltz components (8), diluted in the aforementioned culture media, and added to each well at a density of 1×10^3 cells/well. The final concentration of DMSO was 0.5% and the total volume was 100 µL/well. After a 72 h incubation, resazurin (Sigma-Aldrich, St. Louis, MO) was added to each well [20 µL of 25 mg/100 mL stock in phosphate buffered saline (PBS)] and incubated for an additional 4–6 h.[22] To assess cell viability, fluorescence was quantified using an EnVision Multilabel Plate Reader (Perkin Elmer, Waltham, MA) at an excitation wavelength of 530 nm and emission of 590 nm. Triplicate data points were averaged to generate sigmoidal dose-response curves and determine IC50 values using XLfit curve fitting software from IDBS (Guilford, UK). The IC50 is defined as the amount of compound required to decrease parasite or cell viability by 50% compared to those grown in the absence of the test compound. […]

CYP2C19 = target: T1, CYP2C19 (Homo sapiens, UniProt P33261); experiment: P450-Glo cytochrome P450 inhibition; type: biochemical; conditions: human recombinant CYP2C19
T1 construct: purchased Promega Inc., Madison, WI
Procedure: (§3) The potential for compound to exert drug-drug interactions that are mediated through inhibition of cytochrome P450 activities was assessed using P450-Glo assay kits (Promega Inc., Madison, WI). Assays for human cytochrome P450 isoforms 3A4, 1A2, 2C9, 2C19, and 2D6 were performed in triplicate according to the manufacturer's instructions over the concentration range 1–100 µM (n = 6 levels). Briefly, SCYX-7158 was added to membrane preparations containing human recombinant CYP450 enzymes together with luminogenic substrates specific to each isoform. Specific CYP450 inhibitors were included as positive controls (ketoconazole, CYP3A4; alpha-napthoflavone, 1A2; sulfaphenazole, CYP2C9; troglitazone, 2C19, and quinidine, CYP2D6). Reactions were initiated by addition of NADPH-regenerating solution and were allowed to incubate for an additional 15–30 min (isoform dependent). Luciferin detection reagent, containing the luciferin-labeled probe substrate, was then added. Luminescence was recorded on an EnVision Multilabel Plate Reader. Calculation of IC50 concentrations for each enzyme was determined using GraphPad Prism (V5.01).

CYP3A4 = target: T2, CYP3A4 (Homo sapiens, UniProt P08684); experiment: P450-Glo cytochrome P450 inhibition; type: biochemical; conditions: human recombinant CYP3A4
T2 construct: purchased Promega Inc., Madison, WI
Procedure: as §3

CYP1A2 = target: T3, CYP1A2 (Homo sapiens, UniProt P05177); experiment: P450-Glo cytochrome P450 inhibition; type: biochemical; conditions: human recombinant CYP1A2
T3 construct: purchased Promega Inc., Madison, WI
Procedure: as §3

CYP2D6 = target: T4, CYP2D6 (Homo sapiens, UniProt P10635); experiment: P450-Glo cytochrome P450 inhibition; type: biochemical; conditions: human recombinant CYP2D6
T4 construct: purchased Promega Inc., Madison, WI
Procedure: as §3

CYP2C9 = target: T5, CYP2C9 (Homo sapiens, UniProt P11712); experiment: P450-Glo cytochrome P450 inhibition; type: biochemical; conditions: human recombinant CYP2C9
T5 construct: purchased Promega Inc., Madison, WI
Procedure: as §3

[4] = Pharmacokinetics in uninfected mice; type: in vivo, mouse; conditions: male, CD-1, mouse; oral dose of 56 mg/kg SCYX-7158, plasma
T. b. brucei = experiment: Effect of serum on trypanocidal activity; type: cell-based; conditions: 25% mouse serum or 50% bovine serum
Procedure: as §2

[5] = mouse, in vivo, po; cited from earlier work

T5 sequence (P11712 whole entry): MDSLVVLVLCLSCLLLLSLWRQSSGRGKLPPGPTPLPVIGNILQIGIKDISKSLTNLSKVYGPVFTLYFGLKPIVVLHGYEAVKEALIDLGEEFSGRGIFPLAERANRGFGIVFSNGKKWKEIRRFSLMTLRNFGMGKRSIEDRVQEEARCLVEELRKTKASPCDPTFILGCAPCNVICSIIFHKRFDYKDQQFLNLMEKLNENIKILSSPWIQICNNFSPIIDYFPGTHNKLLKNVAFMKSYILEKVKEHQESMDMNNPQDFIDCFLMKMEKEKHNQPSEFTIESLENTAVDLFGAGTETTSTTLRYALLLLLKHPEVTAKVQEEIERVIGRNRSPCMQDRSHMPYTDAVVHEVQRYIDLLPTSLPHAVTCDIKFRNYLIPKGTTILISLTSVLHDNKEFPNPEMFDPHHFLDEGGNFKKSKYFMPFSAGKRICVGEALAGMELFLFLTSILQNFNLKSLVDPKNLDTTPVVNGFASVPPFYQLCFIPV
T2 sequence (P08684 whole entry): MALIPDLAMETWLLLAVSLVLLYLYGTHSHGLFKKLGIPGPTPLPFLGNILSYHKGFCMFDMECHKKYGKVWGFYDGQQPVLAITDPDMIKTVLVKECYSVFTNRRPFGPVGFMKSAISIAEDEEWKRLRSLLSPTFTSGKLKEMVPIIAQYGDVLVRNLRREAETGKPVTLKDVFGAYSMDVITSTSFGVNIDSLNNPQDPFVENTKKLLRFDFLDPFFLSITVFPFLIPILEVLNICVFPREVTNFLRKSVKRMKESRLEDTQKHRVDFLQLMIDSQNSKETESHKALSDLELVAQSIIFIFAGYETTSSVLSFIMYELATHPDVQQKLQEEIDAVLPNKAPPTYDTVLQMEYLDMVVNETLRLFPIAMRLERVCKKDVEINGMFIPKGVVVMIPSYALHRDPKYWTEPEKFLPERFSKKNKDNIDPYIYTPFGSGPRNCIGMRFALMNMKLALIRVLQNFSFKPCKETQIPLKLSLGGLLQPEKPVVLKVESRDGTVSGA
T3 sequence (P05177 whole entry): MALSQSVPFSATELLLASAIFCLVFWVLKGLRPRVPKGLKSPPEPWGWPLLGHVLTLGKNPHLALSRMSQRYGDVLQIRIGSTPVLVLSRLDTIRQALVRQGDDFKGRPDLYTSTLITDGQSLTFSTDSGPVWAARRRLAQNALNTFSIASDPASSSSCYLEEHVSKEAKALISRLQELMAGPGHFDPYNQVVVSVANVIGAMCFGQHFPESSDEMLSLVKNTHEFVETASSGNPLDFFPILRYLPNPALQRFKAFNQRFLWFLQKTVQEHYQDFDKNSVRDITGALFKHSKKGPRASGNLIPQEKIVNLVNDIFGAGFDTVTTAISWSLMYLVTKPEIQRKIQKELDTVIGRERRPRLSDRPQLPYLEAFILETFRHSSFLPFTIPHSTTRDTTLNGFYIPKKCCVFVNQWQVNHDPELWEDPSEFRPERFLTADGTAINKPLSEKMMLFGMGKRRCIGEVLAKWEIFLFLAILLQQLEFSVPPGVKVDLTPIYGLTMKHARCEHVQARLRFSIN
T4 sequence (P10635 whole entry): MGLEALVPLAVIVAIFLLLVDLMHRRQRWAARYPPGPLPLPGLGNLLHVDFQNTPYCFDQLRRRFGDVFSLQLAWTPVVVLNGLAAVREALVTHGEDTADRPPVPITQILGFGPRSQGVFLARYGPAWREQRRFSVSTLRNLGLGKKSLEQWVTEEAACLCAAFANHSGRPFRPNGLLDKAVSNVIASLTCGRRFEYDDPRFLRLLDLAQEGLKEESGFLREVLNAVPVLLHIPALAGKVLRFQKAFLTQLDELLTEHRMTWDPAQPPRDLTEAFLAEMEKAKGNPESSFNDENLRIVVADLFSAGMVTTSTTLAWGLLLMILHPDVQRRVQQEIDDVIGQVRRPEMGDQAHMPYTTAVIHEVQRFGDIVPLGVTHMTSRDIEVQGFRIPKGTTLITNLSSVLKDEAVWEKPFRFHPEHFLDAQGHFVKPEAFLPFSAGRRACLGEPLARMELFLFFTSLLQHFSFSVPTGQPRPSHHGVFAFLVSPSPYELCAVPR
T1 sequence (P33261 whole entry): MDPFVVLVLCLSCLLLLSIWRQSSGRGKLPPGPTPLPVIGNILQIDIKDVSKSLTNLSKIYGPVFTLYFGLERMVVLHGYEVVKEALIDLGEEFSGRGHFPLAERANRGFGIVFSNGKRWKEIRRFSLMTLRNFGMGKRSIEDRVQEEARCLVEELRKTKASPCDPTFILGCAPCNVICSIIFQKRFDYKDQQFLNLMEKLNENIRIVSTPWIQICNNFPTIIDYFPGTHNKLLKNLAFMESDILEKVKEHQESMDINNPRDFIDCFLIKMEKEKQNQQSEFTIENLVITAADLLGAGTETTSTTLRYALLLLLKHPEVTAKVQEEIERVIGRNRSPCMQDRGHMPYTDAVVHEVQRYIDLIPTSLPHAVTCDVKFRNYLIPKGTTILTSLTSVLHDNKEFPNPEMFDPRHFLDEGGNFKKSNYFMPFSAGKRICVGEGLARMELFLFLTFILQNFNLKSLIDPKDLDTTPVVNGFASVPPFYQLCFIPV

OB(O)O [boric acid]
estimated maximum concentration of boric acid (borate) ([1]; not measured, equimolar to SCYX-3109, 10 mg/kg NG SCYX-7158): ≤ 0.02 µg/mL | estimated maximum concentration of boric acid ([2]; not measured, rats, 10 mg/kg oral SCYX-7158): 0.09 µg/mL | estimated maximum concentration of boric acid ([3]; not measured, mice, 56 mg/kg oral SCYX-7158): 0.05 µg/mL

Nc1nc(N)nc(Nc2ccc([As]3SCC(CO)S3)cc2)n1 (centres unmarked) [melarsoprol]
toxicity to mice (GVR35 stage 2 HAT model; 20 mg/kg QD x 5 days): toxic | dose needed to effect cure (GVR35 stage 2 HAT model; QD × 5 days): 10 to 15 mg/kg

N=C(N)c1ccc(/N=N/Nc2ccc(C(=N)N)cc2)cc1 [berenil, diminazene, reference compound]
outcome in stage 2 model (T. b. brucei TREU 667; single 10 mg/kg i.p. on day 4 after infection (positive control)): cured | outcome in stage 2 model (T. b. brucei TREU 667; single 10 mg/kg i.p. on day 21 after infection (negative control)): do not sustain cures | time of re-infection of the hemolymphatic system (recrudescence) (T. b. brucei TREU 667; treated 21 days after infection): 35–42 days after infection

CC(C)(O)c1ccc(NC(=O)c2ccc(F)cc2C(F)(F)F)cc1O [SCYX-3109]
metabolite plasma concentration as % of the SCYX-7158 concentration ([1]; 10 mg/kg NG group, all time points): approximately 1% | AUC(0-inf) ([1]; male, cynomolgus monkey, oral, 10 mg/kg SCYX-7158 NG, plasma): 6400 ng·h/mL | Cmax ([1]; male, cynomolgus monkey, oral, 10 mg/kg SCYX-7158 nasogastric (NG), plasma): 140 ng/mL | inhibition of parasite growth (T. b. brucei 427): inactive | IC50 (CYP2C19): > 100 µM | IC50 (CYP3A4): 7.5 µM | IC50 (CYP1A2): > 100 µM | IC50 (CYP2D6): > 100 µM | IC50 (CYP2C9): > 100 µM | Cmax ([2]; male, Sprague-Dawley, rat, oral dose of 10 mg/kg SCYX-7158, plasma, read-out: Cmax): 500 ng/mL | metabolite plasma concentration as % of the SCYX-7158 concentration ([2]; oral dose of 10 mg/kg SCYX-7158, each time point): 3-5% | metabolite plasma concentration as % of the SCYX-7158 concentration ([3]; oral dose of 56 mg/kg SCYX-7158, all time points): approximately 1% | Cmax [4]: 270 ng/mL

Cc1ccc(C(=O)Nc2ccc(S(=O)(=O)O)c3cc(S(=O)(=O)O)cc(S(=O)(=O)O)c23)cc1NC(=O)c1cccc(NC(=O)Nc2cccc(C(=O)Nc3cc(C(=O)Nc4ccc(S(=O)(=O)O)c5cc(S(=O)(=O)O)cc(S(=O)(=O)O)c45)ccc3C)c2)c1 [suramin, reference compound]
attenuation of in vitro IC50 (T. b. brucei): greater than 25 fold

O=C(Nc1ccc2c(c1)B(O)OC2)c1ccc(F)cc1C(F)(F)F [SCYX-6759, 4-fluoro-N-(1-hydroxy-1,3-dihydrobenzo[c][1], [2]oxaborol-6-yl)-2-trifluoromethylbenzamide]
efficacy in stage 2 mouse model (T. b. brucei TREU 667; 50 mg/kg twice-daily intraperitoneal (100 mg/kg/day) for 14 days): fully efficacious | efficacy in stage 2 mouse model (T. b. brucei TREU 667; 50 mg/kg twice-daily oral for 7 days): only partial efficacy | efficacy in stage 2 mouse model (T. b. brucei TREU 667; lower doses or once-daily paradigm): not active | time post-dose at which brain concentrations fell below the MIC [5]: approximately 12 h
